Where a name gives a salt, the structure may show the parent alone.
Key:
H358 = assay: ChemoFx chemoresponse assay, erlotinib, H358 cell line; assay type: cell-based, human; settings: Log EC50 by dose number, mean of 3 assays
Method: (§1) Three human lung tumor-derived immortalized cell lines were tested in this study: H292, H358, and Calu3 (American Type Culture Collection, Manassas, Va.). These cell lines were seeded at 40,000 cells in T25 flasks (PGC Scientifics, Frederick, Md.) and allowed to grow for one week to approximately 90% confluence.
(§2) Cell lines and tissue specimens were processed and tested with the ChemoFx® assay as described elsewhere. Also see, U.S. Pat. Nos. 5,728,541, 6,900,027, 6,887,680, 6,933,129, 6,416,967, 7,112,415, and 7,314,731; and U.S. application Ser. Nos. 10/399,563, 11/504,098, 11/595,967, 11/713,662, and 11/785,984, all of which are hereby incorporated by reference in their entireties, and especially with regard to tissue processing and cell culturing techniques, and assays. Ten doses of erlotinib were prepared by serial dilution. The same 10-dose concentration range was used for the cell lines and the tissue specimens. For each dose, a cytotoxic index (CI) was calculated according to the following formula: CI=Mean cell countdose x/mean cell countcontrol, which represents the ratio of cells killed as a result of the treatment. Cell counts were the average of 3 replicates at each dose for primary cultures and 9 replicates at each dose for immortalized cell lines. […] Adjusted areas under the curve (aAUC) were calculated for each dose-response curve as previously described.

[1] = tested on: primary cultures of lung cancer; assay: ChemoFx chemoresponse assay, erlotinib, primary cultures of lung cancer; assay type: cell-based, human; settings: 34 lung cancer tumors; 72-hour treatment
Excerpt: Patient tumor specimens: Primary cell cultures were established using tumor specimens procured for research purposes from the following sources: National Disease Research Interchange (Philadelphia, Pa.), Cooperative Human Tissue Network (Philadelphia, Pa.), Forbes Regional Hospital (Monroeville, Pa.), Jameson Hospital (New Castle, Pa.), Saint Barnabas Medical Center (Livingston, N.J.), Hamot Medical Center (Erie, Pa.), and Windber Research Institute (Windber, Pa.). The tumors were removed from the patient at the time of surgery, placed in the supplied 125-mL bottle containing sterile McCoy's shipping medium (Mediatech, Herndon, Va.), and shipped overnight to Precision Therapeutics, Inc. laboratories (Pittsburgh, Pa.).
Cell lines and tissue specimens were processed and tested with the ChemoFx® assay as described elsewhere. Also see, U.S. Pat. Nos. 5,728,541, 6,900,027, 6,887,680, 6,933,129, 6,416,967, 7,112,415, and 7,314,731; and U.S. application Ser. Nos. 10/399,563, 11/504,098, 11/595,967, 11/713,662, and 11/785,984, all of which are hereby incorporated by reference in their entireties, and especially with regard to tissue processing and cell culturing techniques, and assays. Ten doses of erlotinib were prepared by serial dilution. The same 10-dose concentration range was used for the cell lines and the tissue specimens. For each dose, a cytotoxic index (CI) was calculated according to the following formula: CI=Mean cell countdose x/mean cell countcontrol, which represents the ratio of cells killed as a result of the treatment. Cell counts were the average of 3 replicates at each dose for primary cultures and 9 replicates at each dose for immortalized cell lines. Dose response curves were generated using the CI at each dose. Adjusted areas under the curve (aAUC) were calculated for each dose-response curve as previously described.

Calu-3 = assay: ChemoFx chemoresponse assay, erlotinib, Calu-3 cell line; assay type: cell-based, human; settings: Calu3; Log EC50 by dose number, mean of 3 assays
Method: as §1, §2

H292 = assay: ChemoFx chemoresponse assay, erlotinib, H292 cell line; assay type: cell-based, human; settings: Log EC50 by dose number, mean of 3 assays
Method: as §1, §2

H358 xenograft = settings: tumor growth inhibition; cited from earlier work
H292 xenograft = settings: tumor growth inhibition; cited from earlier work
Calu3 xenograft = settings: tumor growth inhibition; cited from earlier work
[2] = tested on: primary cultures of breast carcinomas; assay: Chemoresponse assay, lapatinib, primary cultures of breast carcinomas; assay type: cell-based, human; settings: 55 primary breast cultures; 72 hours
Method: (§3) The chemoresponse assay for lapatinib was developed using four different immortalized cell lines (SK-OV3, BT474, MDA-MB-231, MCF7). In addition to cell lines, the chemoresponse assay was also performed on 55 primary cultures of breast carcinomas. […] Cell lines and specimens were treated with a 10 dose concentration range of lapatinib for 72 hours and stained with DAPI; remaining live cells were counted on an inverted fluorescent microscope.

BT474 = assay: Chemoresponse assay, lapatinib, BT474; assay type: cell-based
Method: as §3

MCF7 = assay: Chemoresponse assay, lapatinib, MCF7; assay type: cell-based; settings: 72 hours
Method: as §3

SK-OV3 = assay: Chemoresponse assay, lapatinib, SK-OV3; assay type: cell-based
Method: as §3

MDA-MB-231 = assay: Chemoresponse assay, lapatinib, MDA-MB-231; assay type: cell-based; settings: 72 hours
Method: as §3

Compound	Mean (Log EC50*) (H358) [dose number]	specimens Intermediate Responsive to erlotinib [1] [%]	specimens Non-Responsive to erlotinib [1] [%]	specimens Responsive to erlotinib [1] [%]	Mean (Log EC50*) (Calu-3) [dose number]	Mean (Log EC50*) (H292) [dose number]	Xenograft TGI (%) [22] (H358 xenograft) [%]	Xenograft TGI (%) [22] (H292 xenograft) [%]	Xenograft TGI (%) [22] (Calu3 xenograft) [%]	specimens non-responsive to lapatinib [2] [%]	specimens responsive to lapatinib [2] [%]	specimens with intermediate response to lapatinib [2] [%]	response to lapatinib treatment (BT474; 72 hours)	EC50 (BT474; Homo sapiens, BT-474, 72 hours) [µM]	response to lapatinib treatment (MCF7)	EC50 (MCF7; Homo sapiens) [µM]	response to lapatinib treatment (SK-OV3; 72 hours)	EC50 (SK-OV3; Homo sapiens, SK-OV-3, 72 hours) [µM]	response to lapatinib treatment (MDA-MB-231)	EC50 (MDA-MB-231; Homo sapiens) [µM]
C#Cc1cccc(Nc2ncnc3cc(OCCOC)c(OCCOC)cc23)c1 [erlotinib, Erlotinib hydrochloride]	5.925	20.6	70.6	8.8	6.715	4.731	25	85	67	–	–	–	–	–	–	–	–	–	–	–
CS(=O)(=O)CCNCc1ccc(-c2ccc3ncnc(Nc4ccc(OCc5cccc(F)c5)c(Cl)c4)c3c2)o1 [lapatinib, Lapatinib]	–	–	–	–	–	–	–	–	–	76	9	15	responsive	~10	responsive	~10	responsive	~10	responsive	~10
